Test results published in patent US10888547B2, “Amorphous and a crystalline form of genz 112638 hemitartrate as inhibitor of glucosylceramide synthase” (Genzyme Corporation, priority 2009, dated 2021).

Assays:
lactase = target: T1, lactase (Rattus norvegicus, UniProt Q02401); experiment: Intestinal glycosidase assay in rat tissue homogenates; format: biochemical; settings: concentrations up to 2500 μM
T1 construct: The intestinal glycosidase enzymes were assayed in rat tissue homogenates; from tissue; host or cells: rat intestinal tissue homogenate
T1 sequence (Q02401 868-1928): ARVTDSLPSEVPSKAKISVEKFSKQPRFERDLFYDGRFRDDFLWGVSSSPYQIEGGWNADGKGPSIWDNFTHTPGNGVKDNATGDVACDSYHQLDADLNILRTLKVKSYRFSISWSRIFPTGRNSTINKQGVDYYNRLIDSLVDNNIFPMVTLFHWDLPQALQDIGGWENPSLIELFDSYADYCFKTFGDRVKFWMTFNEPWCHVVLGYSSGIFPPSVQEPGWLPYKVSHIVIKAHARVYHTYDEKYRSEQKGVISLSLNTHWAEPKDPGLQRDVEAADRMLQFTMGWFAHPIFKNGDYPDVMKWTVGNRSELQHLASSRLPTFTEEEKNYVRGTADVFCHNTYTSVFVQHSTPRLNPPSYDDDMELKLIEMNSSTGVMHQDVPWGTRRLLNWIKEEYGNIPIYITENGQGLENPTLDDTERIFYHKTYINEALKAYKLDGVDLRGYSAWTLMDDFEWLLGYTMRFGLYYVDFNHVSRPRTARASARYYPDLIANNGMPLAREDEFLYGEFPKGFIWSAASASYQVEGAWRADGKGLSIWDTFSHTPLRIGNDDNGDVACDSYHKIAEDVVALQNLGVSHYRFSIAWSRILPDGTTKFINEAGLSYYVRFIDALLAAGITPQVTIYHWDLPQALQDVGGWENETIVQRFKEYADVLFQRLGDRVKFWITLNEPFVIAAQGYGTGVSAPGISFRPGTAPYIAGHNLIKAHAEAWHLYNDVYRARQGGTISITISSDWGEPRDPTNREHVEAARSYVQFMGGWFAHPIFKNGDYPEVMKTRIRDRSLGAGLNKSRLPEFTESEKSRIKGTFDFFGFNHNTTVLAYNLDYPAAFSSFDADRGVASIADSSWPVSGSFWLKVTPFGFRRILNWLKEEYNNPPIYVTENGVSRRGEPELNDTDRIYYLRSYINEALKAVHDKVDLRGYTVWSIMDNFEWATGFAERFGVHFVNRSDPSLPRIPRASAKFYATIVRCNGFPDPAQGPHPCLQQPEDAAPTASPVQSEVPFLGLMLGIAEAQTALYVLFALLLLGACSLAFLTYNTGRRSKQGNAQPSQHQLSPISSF
Description: (§1) The specificity of Formula (I) Hemitartrate was evaluated in a series of in vitro cell-based and cell-free assays. The intestinal glycosidase enzymes were assayed in rat tissue homogenates (see U. Andersson, et al., Biochem. Pharm. 59 (2000) 821-829, the entire teachings of which are incorporated herein by reference), and the glycogen debranching enzyme was assayed in a cell free assay as described (see U. Andersson, et al., Biochem. Pharm. 67 (2004) 697-705, the entire teachings of which are incorporated herein by reference).

maltase = experiment: as above; format: biochemical
Description: as §1

sucrase = target: T2, sucrase (Rattus norvegicus, UniProt P23739); experiment: as above; format: biochemical
T2 construct: The intestinal glycosidase enzymes were assayed in rat tissue homogenates; from tissue; host or cells: rat intestinal tissue homogenate
T2 sequence (P23739 whole entry): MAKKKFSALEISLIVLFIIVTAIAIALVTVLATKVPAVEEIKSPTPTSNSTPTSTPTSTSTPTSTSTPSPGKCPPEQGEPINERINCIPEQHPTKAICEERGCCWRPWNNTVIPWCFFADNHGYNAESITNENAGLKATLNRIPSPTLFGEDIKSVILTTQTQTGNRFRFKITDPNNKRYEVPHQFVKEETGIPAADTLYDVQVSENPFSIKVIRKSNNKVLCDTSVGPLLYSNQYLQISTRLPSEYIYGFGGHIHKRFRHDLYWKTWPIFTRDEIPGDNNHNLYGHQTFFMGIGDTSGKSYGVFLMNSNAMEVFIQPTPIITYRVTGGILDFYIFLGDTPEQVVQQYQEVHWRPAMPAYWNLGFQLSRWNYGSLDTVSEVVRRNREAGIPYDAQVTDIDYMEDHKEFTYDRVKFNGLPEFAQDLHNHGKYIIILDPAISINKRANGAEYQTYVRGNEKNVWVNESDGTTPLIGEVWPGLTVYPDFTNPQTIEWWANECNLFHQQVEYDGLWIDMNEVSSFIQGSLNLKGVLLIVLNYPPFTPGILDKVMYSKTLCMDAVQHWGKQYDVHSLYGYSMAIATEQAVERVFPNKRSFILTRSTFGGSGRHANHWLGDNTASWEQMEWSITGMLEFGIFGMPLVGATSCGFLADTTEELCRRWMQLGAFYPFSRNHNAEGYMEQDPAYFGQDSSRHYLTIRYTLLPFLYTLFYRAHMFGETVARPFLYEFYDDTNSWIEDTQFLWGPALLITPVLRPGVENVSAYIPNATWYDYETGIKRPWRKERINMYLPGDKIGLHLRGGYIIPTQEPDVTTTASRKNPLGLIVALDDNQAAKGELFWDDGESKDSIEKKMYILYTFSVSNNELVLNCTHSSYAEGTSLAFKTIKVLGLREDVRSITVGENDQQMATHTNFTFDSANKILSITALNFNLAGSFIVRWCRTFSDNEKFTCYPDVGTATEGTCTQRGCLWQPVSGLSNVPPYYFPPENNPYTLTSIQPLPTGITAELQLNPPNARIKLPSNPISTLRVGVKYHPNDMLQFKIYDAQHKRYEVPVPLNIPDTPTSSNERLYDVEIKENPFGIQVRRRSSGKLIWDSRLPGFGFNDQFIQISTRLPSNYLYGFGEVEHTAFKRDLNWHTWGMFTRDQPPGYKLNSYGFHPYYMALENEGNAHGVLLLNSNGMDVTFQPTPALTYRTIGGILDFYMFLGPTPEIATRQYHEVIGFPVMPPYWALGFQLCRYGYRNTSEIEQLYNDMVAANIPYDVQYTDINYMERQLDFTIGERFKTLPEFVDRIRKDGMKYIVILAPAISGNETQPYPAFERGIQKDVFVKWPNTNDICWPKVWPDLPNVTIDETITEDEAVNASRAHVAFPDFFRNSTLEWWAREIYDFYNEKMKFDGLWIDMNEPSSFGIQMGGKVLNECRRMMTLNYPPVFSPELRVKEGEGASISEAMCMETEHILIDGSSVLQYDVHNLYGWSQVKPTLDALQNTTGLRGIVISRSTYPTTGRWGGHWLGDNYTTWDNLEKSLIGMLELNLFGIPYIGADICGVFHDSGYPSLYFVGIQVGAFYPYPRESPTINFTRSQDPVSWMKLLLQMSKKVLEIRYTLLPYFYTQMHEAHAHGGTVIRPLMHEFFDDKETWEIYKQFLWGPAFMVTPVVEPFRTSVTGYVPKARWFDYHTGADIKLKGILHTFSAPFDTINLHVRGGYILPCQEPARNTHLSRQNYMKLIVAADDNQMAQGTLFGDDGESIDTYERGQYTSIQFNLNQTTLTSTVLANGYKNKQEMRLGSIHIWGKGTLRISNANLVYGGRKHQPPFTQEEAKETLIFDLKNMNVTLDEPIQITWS
Description: as §1

[1] = Approximate solubility in organic solvents from solvent addition; format: physicochemical; settings: organic solvent or mixture, thermodynamic from solid, room temperature (20-25° C.)
Description: A weighed sample (usually 20 mg) was treated with aliquots of the test solvent. Aliquots were typically 100-200 μL. Between solvent additions, the mixture was shaken or sonicated. When the solids dissolved, as judged by visual inspection, the solution was allowed to evaporate under ambient conditions in an open vial covered with aluminum foil perforated with pinholes. Solubilities were estimated from these experiments based on the total solvent added to obtain a clear solution.

[2] = Hygroscopicity of salts and free base; format: physicochemical
Fabry-Rag mice = experiment: Combination ERT/SRT therapy of Fabry-Rag mice; format: in vivo, mouse; settings: ERT 1 mg/kg α-galactosidase A i.v., SRT 300 mg/kg daily in diet
Description: For the combination therapy studies, Fabry-Rag mice were put on study at 3 months old (treatment model). Mice in group A received intravenous injections of recombinant human alpha-galactosidase A (Genzyme Corp.) at a dose of 1 mg/kg every 2 months (i.e. 3, 5, 7 and 9 months old). Group B received the same intravenous enzyme doses plus it received Formula (I) Hemitartrate (Genzyme Corp., Cambridge, Mass.) as a component of the pellet food diet. The drug was formulated at 0.15% (w/w) in standard 5053 mouse chow (TestDiet, Richmond, Ind.) and provided ad libitum. […] Group C received enzyme injections every 4 months (i.e. 3 and 7 months old) and was on the same drug-in-food diet as group B. Group D received only the drug-in-food diet (same as groups B and C). Group E was untreated Fabry-Rag mice and group F were wild-type controls.
Quantitation of GL-3 was by Tandem Mass Spectrometry essentially as for GL-1.
Hot plate Assay was performed as described previously (Ziegler, R J et al. Molec. Ther. 15(3), 492-500 (2007).
Beginning at three-months of age, the mice were subjected to a schedule of behavioral tests (i.e. hot-plate assay) and biochemical tests (i.e., GL-3 level analysis in tissues/blood/urine), as shown in FIG. 10.

D409V/null mice = experiment: Oral gavage efficacy study in Gaucher D409V/null mice; format: in vivo, mouse
[3] = mouse, in vivo, po, 150 mg/kg/day

SMILES: CCCCCCCC(=O)N[C@H](CN1CCCC1)[C@H](O)c1ccc2c(c1)OCCO2 [Formula (I) Hemitartrate]
- inhibition of lactase (lactase): No detectable inhibition
- inhibition of maltase (maltase; concentrations up to 2500 μM): No detectable inhibition
- Ki (maltase; read-out: Enzyme specificities, Ki: Maltase inhibition): > 10 µM
- inhibition of sucrase (sucrase; concentrations up to 2500 μM): No detectable inhibition
- Ki (sucrase; read-out: Enzyme specificities, Ki: Sucrase inhibition): > 10 µM
- solubility ([1]; Acetone): < 5000 µg/mL
- solubility ([1]; Acetonitrile): < 5000 µg/mL
- solubility ([1]; Dichloromethane): 100000 µg/mL
- solubility ([1]; Ethanol): 29000 µg/mL
- solubility ([1]; Ethyl Acetate): < 5000 µg/mL
- solubility ([1]; Isopropyl alcohol): < 5000 µg/mL
- solubility ([1]; Methanol): > 200000 µg/mL
- solubility ([1]; Methyl t-butyl ether (TBME)): < 5000 µg/mL
- solubility ([1]; Tetrahydrofuran (THF)): < 5000 µg/mL
- solubility ([1]; Toluene): < 5000 µg/mL
- solubility ([1]; p-Dioxane): < 5000 µg/mL
- Hygroscopicity (40° C./75% RH) ([2]; 40° C./75% RH): None
- hygroscopicity of the solid salt ([2]; salt screen, Example 1, listed as hemitartrate (1 salt: 2 Formula I)): non-hygroscopic
- onset of heat-insensitivity (Fabry-Rag mice): delays onset
- urine GL-3 levels (Fabry-Rag mice): reduces
- blood GL-3 levels (Fabry-Rag mice; from 3 months of age): does not
- gastro-intestinal issues (D409V/null mice; effective dose of 150 mg/kg/day): no observable gastro-intestinal issues
- glucosylceramide levels versus age-matched vehicle-treated controls (D409V/null mice; mouse, in vivo): dose-dependent reduction
- body weight versus untreated mice (D409V/null mice; [3]): no significant deviation
- effects on well-being or feeding habits (D409V/null mice; [3]): no notable effects
- frequency of Gaucher cells in the liver versus untreated mice (D409V/null mice; [3]): significantly lower
- glucosylceramide levels in liver, % lower than in vehicle-treated mice (D409V/null mice; [3]): 60%
- glucosylceramide levels in liver, lung and spleen versus start of the study (D409V/null mice; [3]): had not increased
- glucosylceramide levels in lung, % lower than in vehicle-treated mice (D409V/null mice; [3]): 50%
- glucosylceramide levels in spleen, % lower than in vehicle-treated mice (D409V/null mice; [3]): 40%
- glucosylceramide levels in the liver, % of those in the controls (D409V/null mice; [3]): 60%
- glucosylceramide levels in the lung, % of those in the controls (D409V/null mice; [3]): 40%
- glucosylceramide levels in the spleen, % of those in the controls (D409V/null mice; [3]): 75%
